Patent publication US7713994B2 (Wyeth LLC, priority 2005, dated 2010)
Read-outs that look alike come from different tables or passages of the source.

Columns and labels:
cyclin B/CDK1 enzyme = target: T1, cyclin B/CDK1 enzyme (Homo sapiens, UniProt P06493); assay: CDK1 ELISA kinase assay (phospho-Rb ser 795 detection); format: biochemical
T1 construct: purchased New England BioLabs; host or cells: Sf9 insect cells, recombinant baculovirus
Summary of the method: (§1)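 Wells were coated overnight with GST-Rb C-terminal fragment, then blocked. Compound (10 ug/ml final) and cyclin/CDK enzyme from baculovirus-infected Sf9 cells with 200 μM ATP reacted 1 h at 30° C. Ser795 phosphorylation was detected by ELISA at 450 nm.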

MCF-7 = assay: Cytotoxicity assay (SRB), MCF-7; format: cell-based; conditions: MCF-7 cells, SRB, read-out: In Vitro Cellular Activity IC50 MCF-7
Summary of the method: (§2)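 Overnight-seeded monolayers (4000–12000 cells/well by line) receive compound in 5% FBS medium at 37 °C, 7% CO2. After 3 d, or 6 d for BT474, cellular protein is fixed with cold TCA, stained with SRB and read at 540 nm against untreated wells.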

cyclin E/CDK2 enzyme = target: T2, cyclin E/CDK2 enzyme (Homo sapiens, UniProt P24941); assay: CDK2 ELISA kinase assay (phospho-Rb ser 795 detection); format: biochemical
T2 construct: made in house; host or cells: Sf9 insect cells, recombinant baculovirus
Summary of the method: as §1

HCT-116 = assay: Cytotoxicity assay (SRB), HCT-116; format: cell-based; conditions: HCT116 cells, SRB, read-out: In Vitro Cellular Activity IC50 HCT116
Summary of the method: as §2

cyclin D1/cdk 4 enzyme = target: T3, cyclin D1/cdk 4 enzyme (Homo sapiens, UniProt P11802); assay: CDK4 ELISA kinase assay (phospho-Rb ser 795 detection); format: biochemical
T3 construct: made in house; host or cells: Sf9 insect cells, recombinant baculovirus
T3 sequence (P11802 whole entry, species assumed): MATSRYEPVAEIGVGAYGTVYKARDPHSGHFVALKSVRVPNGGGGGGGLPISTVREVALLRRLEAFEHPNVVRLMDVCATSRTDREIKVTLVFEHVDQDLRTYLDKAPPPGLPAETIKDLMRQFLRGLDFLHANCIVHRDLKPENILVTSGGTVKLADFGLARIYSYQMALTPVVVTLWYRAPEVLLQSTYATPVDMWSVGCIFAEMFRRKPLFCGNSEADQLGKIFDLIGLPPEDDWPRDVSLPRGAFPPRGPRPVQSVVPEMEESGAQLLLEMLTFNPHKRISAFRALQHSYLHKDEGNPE
T3 sequence (P24385 whole entry partner, species assumed): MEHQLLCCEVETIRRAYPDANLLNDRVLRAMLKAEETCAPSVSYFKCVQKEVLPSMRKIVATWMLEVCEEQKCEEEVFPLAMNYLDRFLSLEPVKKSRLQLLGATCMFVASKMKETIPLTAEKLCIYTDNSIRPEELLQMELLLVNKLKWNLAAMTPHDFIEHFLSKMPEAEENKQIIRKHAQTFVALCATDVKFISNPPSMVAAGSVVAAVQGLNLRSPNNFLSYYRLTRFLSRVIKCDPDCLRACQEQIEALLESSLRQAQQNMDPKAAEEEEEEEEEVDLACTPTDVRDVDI
Summary of the method: as §1

LoVo = assay: Cytotoxicity assay (SRB), LoVo; format: cell-based; conditions: LoVo cells, SRB, read-out: In Vitro Cellular Activity IC50 LOVO
Summary of the method: as §2

BT474 = assay: Cytotoxicity assay (SRB), BT474; format: cell-based
Summary of the method: as §2

[1] = In Vitro Enzyme Assays, read-out: CDK1 IC50
[2] = Homo sapiens, MCF7, 72 h, three days
[3] = In Vitro Enzyme Assays, read-out: CDK2 IC50
[4] = Homo sapiens, HCT-116, 72 h, three days
[5] = In Vitro Enzyme Assays, 200 μM ATP, read-out: CDK4 IC50
[6] = Homo sapiens, LoVo, 72 h, three days
[7] = Homo sapiens, BT-474, 144 h, BT474 cells, SRB, 6 days; read-out: In Vitro Cellular Activity IC50 BT474
[8] = In Vitro Enzyme Assay, cyclin B/CDK1, read-out: CDK1 IC50
[9] = Homo sapiens, MCF7, 72 h, 3 days
[10] = In Vitro Enzyme Assay, cyclin E/CDK2, read-out: CDK2 IC50
[11] = Homo sapiens, HCT-116, 72 h, 3 days
[12] = In Vitro Enzyme Assay, cyclin D1/cdk 4, read-out: CDK4 IC50
[13] = Homo sapiens, LoVo, 72 h, 3 days
[14] = Homo sapiens, BT-474, 144 h, BT474 cells, 6 days, SRB; read-out: In Vitro Cellular Activity IC50 BT474

T1 sequence (P06493 whole entry): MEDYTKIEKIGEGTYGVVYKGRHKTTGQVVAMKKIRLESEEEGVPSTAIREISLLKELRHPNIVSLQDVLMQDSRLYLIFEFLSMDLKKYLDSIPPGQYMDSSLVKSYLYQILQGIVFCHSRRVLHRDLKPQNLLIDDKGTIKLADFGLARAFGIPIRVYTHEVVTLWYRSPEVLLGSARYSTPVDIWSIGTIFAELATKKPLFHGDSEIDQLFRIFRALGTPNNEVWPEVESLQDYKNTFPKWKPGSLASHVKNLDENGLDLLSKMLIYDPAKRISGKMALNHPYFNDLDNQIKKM
T1 sequence (P14635 whole entry partner): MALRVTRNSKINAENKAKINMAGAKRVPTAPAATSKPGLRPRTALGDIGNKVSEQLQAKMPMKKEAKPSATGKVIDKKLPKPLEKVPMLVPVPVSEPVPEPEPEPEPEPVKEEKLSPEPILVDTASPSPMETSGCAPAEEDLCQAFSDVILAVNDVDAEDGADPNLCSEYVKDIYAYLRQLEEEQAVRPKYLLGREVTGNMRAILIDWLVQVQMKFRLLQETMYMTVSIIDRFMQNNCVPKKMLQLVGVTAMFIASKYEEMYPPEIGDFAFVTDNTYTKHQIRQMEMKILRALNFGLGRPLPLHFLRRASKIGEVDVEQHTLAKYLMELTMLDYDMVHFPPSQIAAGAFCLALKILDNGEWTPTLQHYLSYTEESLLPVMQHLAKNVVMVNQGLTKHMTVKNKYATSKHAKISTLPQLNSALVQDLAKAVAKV

Row | SMILES | IC50 (cyclin B/CDK1 enzyme; [1]) [µM] | IC50 (MCF-7; [2]) [µM] | IC50 (cyclin E/CDK2 enzyme; [3]) [µM] | IC50 (HCT-116; [4]) [µM] | IC50 (cyclin D1/cdk 4 enzyme; [5]) [nM] | IC50 (LoVo; [6]) [µM] | IC50 (BT474; [7]) [µM] | IC50 (cyclin B/CDK1 enzyme; [8]) [µM] | IC50 (MCF-7; [9]) [µM] | IC50 (cyclin E/CDK2 enzyme; [10]) [µM] | IC50 (HCT-116; [11]) [µM] | IC50 (cyclin D1/cdk 4 enzyme; [12]) [nM] | IC50 (LoVo; [13]) [µM] | IC50 (BT474; [14]) [µM] | further results
1 | CCCOc1cnc(CNC=C2C(=O)NC(=O)c3ccc(Br)cc32)cc1O [Example 365, 4-{[(4-Hydroxy-5-propoxy-pyridin-2-ylmethyl)-amino]-methylene}-6-bromo-4H-isoquinoline-1,3-dione] | > 50 | 1.2 | 1.9 | 1.3 | 70 | 1 | 0.76 | – | – | – | – | – | – | – | –
2 | CCCN(Cc1ccc(NC=C2C(=O)NC(=O)c3ccccc32)cc1)CC1CC1 [Example 575, 4-({4-[(Cyclopropylmethyl-propyl-amino)-methyl]-phenylamino}-methylene)-4H-isoquinoline-1,3-dione] | – | – | – | – | – | – | – | 11.8 | 20.3 | > 50 | 16.6 | 9200 | 21.8 | 28.1 | –
3 | CN(CCO)c1ccc(N/C=C2\C(=O)NC(=O)c3ccc(Br)cc32)cc1 [Example 244, (4Z)-6-Bromo-4-[({4-[(2-hydroxyethyl)(methyl)amino]phenyl}amino)methylene]isoquinoline-1,3(2H,4H)-dione] | > 50 | 19 | > 50 | 4.9 | 45500 | 15 | 9.4 | – | – | – | – | – | – | – | –
4 | CN(C)C(=O)C1CCN(c2ccc(N/C=C3\C(=O)NC(=O)c4ccc(I)cc43)cc2)CC1 [Example 429, 1-(4-{[(Z)-(6-Iodo-1,3-dioxo-2,3-dihydroisoquinolin-4(1H)-ylidene)methyl]amino}phenyl)-N,N-dimethylpiperidine-4-carboxamide] | > 50 | – | > 50 | – | 3000 | – | – | – | > 50 | – | 21 | – | 21.1 | 11.7 | –
5 | COc1ccc(CNC=C2C(=O)NC(=O)c3ccc(C=CCc4cccc(OC)c4O)cc32)cc1O [Example 827, 4-[(3-Hydroxy-4-methoxy-benzylamino)-methylene]-6-[3-(2-hydroxy-3-methoxy-phenyl)-propenyl]-4H-isoquinoline-1,3-dione] | – | – | – | – | – | – | – | > 50 | 17.5 | 45.5 | 10.8 | 120 | 18.1 | 26.5 | –
6 | CN1CCC(N(C)c2ccc(N/C=C3\C(=O)NC(=O)c4ccc(Br)cc43)cc2)C1 (centres unmarked) [Example 245, (4Z)-6-Bromo-4-[({4-[methyl(1-methylpyrrolidin-3-yl)amino]phenyl}amino)methylene]isoquinoline-1,3(2H,4H)-dione] | > 50 | 3 | > 50 | 3.4 | 2000 | 6.6 | 8.4 | – | – | – | – | – | – | – | –
7 | NS(=O)(=O)c1ccc(CNC=C2C(=O)NC(=O)c3ccc(-c4ccc(Cl)cc4)cc32)cc1 [Example 749, 4-({[6-(4-Chloro-phenyl)-1,3-dioxo-2,3-dihydro-1H-isoquinolin-4-ylidenemethyl]-amino}-methyl)-benzenesulfonamide] | – | – | – | – | – | – | – | 38.8 | 14.1 | 8 | 20.9 | 1480 | 47.2 | > 50 | –
8 | CN1CCN(c2ccc(N/C=C3\C(=O)NC(=O)c4ccc(NC(=O)Cc5cccs5)cc43)cc2)CC1 [Example 198, 1,2,3,4-Tetrahydroisoquinolin-6-yl]-2-thien-2-ylacetamide ′N-[(4Z)-4-({[4-(4-methylpiperazin-1-yl)phenyl]amino}methylene)-1,3-dioxo] | 12 | – | 22.1 | – | 3100 | – | – | – | – | – | – | – | – | – | IC50 (MCF-7; three days): 4.3 µM; IC50 (HCT-116; three days): 1.8 µM; IC50 (LoVo; three days): 3.7 µM; IC50 (BT474; BT474 cells, SRB, 6 days; read-out: In Vitro Cellular Activity IC50 BT474): 4.3 µM
9 | C=CC(=O)Nc1ccc(CN/C=C2\C(=O)NC(=O)c3ccc(Br)cc32)cc1O [Example 301, N-[4-({[(Z)-(6-Bromo-1,3-dioxo-2,3-dihydroisoquinolin-4(1H)-ylidene)methyl]amino}methyl)-2-hydroxyphenyl]acrylamide] | > 50 | 0.2 | 8.4 | 0.17 | 90 | 0.17 | 0.14 | – | – | – | – | – | – | – | –
10 | CN1CCN(c2ccc(NC=C3C(=O)NC(=O)c4ccc(C=Cc5ccncc5)cc43)cc2)CC1 [Example 676, 4-{[4-(4-Methyl-piperazin-1-yl)-phenylamino]-methylene}-6-(2-pyridin-4-yl-vinyl)-4H-isoquinoline-1,3-dione] | – | – | – | – | – | – | – | 15.1 | 7.3 | 15.8 | 2.5 | 920 | 4.6 | 7.7 | –
11 | COc1ccc(CN/C=C2\C(=O)NC(=O)c3ccc(-c4ccc(F)cc4)cc32)cc1O [Example 208, (4Z)-6-(4-Fluorophenyl)-4-{[(3-hydroxy-4-methoxybenzyl)amino]methylene}iso-quinoline-1,3(2H,4H)-dione] | > 50 | 3.4 | 30.3 | 5.7 | 9 | 15 | 8.2 | – | – | – | – | – | – | – | –
12 | O=C1NC(=O)c2ccc(Br)cc2/C1=C/Nc1ccc(-n2ccnc2)cc1 [Example 869, (4Z)-6-Bromo-4-({[4-(1H-imidazol-1-yl)phenyl]amino}methylene)isoquinoline-1,3(2H,4H)-dione] | – | – | – | – | – | – | – | – | > 50 | – | 5.4 | – | > 50 | > 50 | IC50 (cyclin B/CDK1 enzyme; In Vitro Enzyme Assay, read-out: CDK1 IC50): > 50 µM; IC50 (cyclin E/CDK2 enzyme; In Vitro Enzyme Assay, read-out: CDK2 IC50): 14.7 µM; IC50 (cyclin D1/cdk 4 enzyme; In Vitro Enzyme Assay, read-out: CDK4 IC50): 22600 nM
13 | CCC(=O)Nc1ccc(CN/C=C2\C(=O)NC(=O)c3ccc(Br)cc32)cc1 [Example 321] | > 50 | 10 | 3.6 | 1.2 | > 50000 | 4.4 | 0.84 | – | – | – | – | – | – | – | –
14 | CN1CCN(c2ccc(N/C=C3\C(=O)NC(=O)c4ccc(I)cc43)c(F)n2)CC1 [Example 445, (4Z)-4-({[2-Fluoro-6-(4-methylpiperazin-1-yl)pyridin-3-yl]amino}methylene)-6-iodoisoquinoline-1,3(2H,4H)-dione] | > 50 | – | > 50 | – | 320 | – | – | – | 3.2 | – | 1.8 | – | 2.7 | 2.8 | –
15 | COc1ccc(CNC=C2C(=O)NC(=O)c3ccc(C=Cc4ccccc4)cc32)cc1O [Example 825, 4-[(3-Hydroxy-4-methoxy-benzylamino)-methylene]-6-styryl-4H-isoquinoline-1,3-dione] | – | – | – | – | – | – | – | > 50 | 12.3 | 36.3 | 11.9 | 20 | 22.1 | 24.7 | –
16 | CCN1CCCC1c1ccc(N/C=C2\C(=O)NC(=O)c3ccc(-c4ccoc4)cc32)cc1 (centres unmarked) [Example 473, 4-{[4-(1-Ethyl-pyrrolidin-2-yl)-phenylamino]-methylene}-6-furan-3-yl-4H-isoquinoline-1,3-dione] | – | – | – | – | – | – | – | > 50 | 2 | > 50 | 2.4 | 50 | 2.3 | 1.5 | –
17 | O=C1NC(=O)c2ccc(Br)cc2/C1=C/NCCN1CCNCC1 [Example 307, (Z)-6-Bromo-4-((2-(piperazin-1-yl)ethylamino)methylene)isoquinoline-1,3(2H,4H)-dione] | > 50 | 25 | 38 | 23 | 9800 | 28 | 46 | – | – | – | – | – | – | – | –
